Where “and” joins values, the source holds several entries; their conditions need not be identical. Equal values may be shown once.
Experiments:
Test in all cases: biochemical
Type in all cases: binding
[1] = biological target: SfurOBP1 (Sogatella furcifera, UniProt V5T8N5); settings: for Fluorescence competitive binding assay, fluorescence intensity: OBP1, three replicate columns
Description: (§1) Thirty-six rice odorants ([He et al., 2014]; [Wang et al., 2017]) and 1-N-phenyl-naphthylamine (1-NPN) were purchased from Sigma-Aldrich (St Louis, MO, USA). These odorants and 1-NPN were dissolved in high-performance liquid chromatography (HPLC) purify grade methanol for 1.0 mM as work solution.
(§2) Fluorescence competitive binding assays were performed on Tecan Spark 10M (Tecan Group Ltd., Männedorf, Switzerland) with the F96 Black ELIAS Plate (Sangon) ([Khuhro et al., 2017]; [Liu et al., 2017]). The solutions were excited at 337 nm and emission spectra were recorded between 390 and 490 nm. First, to test the binding constants of 1-NPN to the SfurOBPs, a 2.0 µM solution of protein in 50 mM Tris-HCl (pH = 7.4) was titrated with 1 mM 1-NPN to achieve virous concentrations. Next, the competitive binding of each odorant was measured using the 1-NPN as fluorescent reporter and odorant as competitor. The concentrations of protein and 1-NPN were both 2.0 µM, the odorant added after protein and 1-NPN added into the well of ELIAS Plate for 2 min. The final concentrations of each competitor were 2, 4, 6, 8, 10, 12, 14, 16, 18 and 20 µM. After 2 min of odorant added, the fluorescence intensity was measured and recorded. The volume of mixed solution in each well was maintained at 250 µL. Each interaction was performed in triplicates.
(§3) GraphPad Prism 7.0 software (GraphPad Software, Inc., La Jolla, CA, USA) was used to calculated and generated the binding constants (K1−NPN) of 1-NPN to SfurOBPs and relative Scatchard plots ([Ban et al., 2003]; [Li et al., 2016]). Dissociation constant (Ki) of each odorant to SfurOBP was computed from the corresponding IC50 value (the half maximal inhibitory concentration), using the following equation: Ki=[IC50]/(1 + [1-NPN]/K1−NPN), where [1-NPN] is the free concentration of 1-NPN and K1−NPN is the dissociation constant of the complex protein/1-NPN.

[2] = biological target: SfurOBP11 (Sogatella furcifera, UniProt V5T6E3)
Sequence of SfurOBP11 (V5T6E3 entry or part of it): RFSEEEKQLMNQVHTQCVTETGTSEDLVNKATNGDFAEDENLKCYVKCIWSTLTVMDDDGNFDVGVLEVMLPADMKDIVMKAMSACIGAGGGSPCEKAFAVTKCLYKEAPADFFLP
Description: as §1, §2, §3

[3] = biological target: SfurOBP2 (Sogatella furcifera, UniProt V5T759)
Sequence of SfurOBP2 (V5T759 entry or part of it): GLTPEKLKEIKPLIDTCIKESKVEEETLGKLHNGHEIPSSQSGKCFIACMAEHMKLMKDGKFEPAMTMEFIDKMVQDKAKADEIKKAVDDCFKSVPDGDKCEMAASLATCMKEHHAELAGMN
Description: as §1, §2, §3

[4] = biological target: SfurOBP3 (Sogatella furcifera, UniProt V5T818); settings: for Fluorescence competitive binding assay, fluorescence intensity: OBP3, three replicate columns
Sequence of SfurOBP3 (V5T818 entry or part of it): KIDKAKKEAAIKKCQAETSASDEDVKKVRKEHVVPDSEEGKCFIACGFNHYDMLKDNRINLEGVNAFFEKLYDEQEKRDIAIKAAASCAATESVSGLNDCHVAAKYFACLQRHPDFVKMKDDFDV
Description: as §1, §2, §3

Sequence of SfurOBP1 (V5T8N5 entry or part of it): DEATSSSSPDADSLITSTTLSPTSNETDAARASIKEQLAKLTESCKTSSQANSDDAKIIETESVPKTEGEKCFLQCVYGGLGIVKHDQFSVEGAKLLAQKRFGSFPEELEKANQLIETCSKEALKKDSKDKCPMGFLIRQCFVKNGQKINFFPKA

## c1ccc2ccccc2c1 [naphthalene]
[1]
  IC50: > 20 µM
[1]; ligand concentration 2 (μM)
  Fluorescence competitive binding assay, fluorescence intensity: 5483 and 5608 and 5501
[1]; ligand concentration 4 (μM)
  Fluorescence competitive binding assay, fluorescence intensity: 5830 and 5745 and 5659
[1]; ligand concentration 6 (μM)
  Fluorescence competitive binding assay, fluorescence intensity: 5799 and 5826 and 5942
[1]; ligand concentration 8 (μM)
  Fluorescence competitive binding assay, fluorescence intensity: 6002 and 5983 and 5964
[1]; ligand concentration 10 (μM)
  Fluorescence competitive binding assay, fluorescence intensity: 5834 and 6388 and 6102
[1]; ligand concentration 12 (μM)
  Fluorescence competitive binding assay, fluorescence intensity: 6285 and 6121 and 6209
[1]; ligand concentration 14 (μM)
  Fluorescence competitive binding assay, fluorescence intensity: 6231 and 6194 and 6297
[1]; ligand concentration 16 (μM)
  Fluorescence competitive binding assay, fluorescence intensity: 6398 and 6743 and 6035
[1]; ligand concentration 18 (μM)
  Fluorescence competitive binding assay, fluorescence intensity: 6548 and 7178 and 7195
[1]; ligand concentration 20 (μM)
  Fluorescence competitive binding assay, fluorescence intensity: 7389 and 7177 and 6994
[2]
  IC50: > 20 µM
[2]; ligand concentration 2, replicate 1
  Fluorescence intensity, fluorescence competitive binding assay, OBP11: 34403
[2]; ligand concentration 2, replicate 2
  Fluorescence intensity, fluorescence competitive binding assay, OBP11: 32473
[2]; ligand concentration 2, replicate 3
  Fluorescence intensity, fluorescence competitive binding assay, OBP11: 34898
[2]; ligand concentration 4, replicate 1
  Fluorescence intensity, fluorescence competitive binding assay, OBP11: 34130
[2]; ligand concentration 4, replicate 2
  Fluorescence intensity, fluorescence competitive binding assay, OBP11: 34738
[2]; ligand concentration 4, replicate 3
  Fluorescence intensity, fluorescence competitive binding assay, OBP11: 32492
[2]; ligand concentration 6, replicate 1
  Fluorescence intensity, fluorescence competitive binding assay, OBP11: 35498
[2]; ligand concentration 6, replicate 2
  Fluorescence intensity, fluorescence competitive binding assay, OBP11: 33550
[2]; ligand concentration 6, replicate 3
  Fluorescence intensity, fluorescence competitive binding assay, OBP11: 32552
[2]; ligand concentration 8, replicate 1
  Fluorescence intensity, fluorescence competitive binding assay, OBP11: 32155
[2]; ligand concentration 8, replicate 2
  Fluorescence intensity, fluorescence competitive binding assay, OBP11: 35048
[2]; ligand concentration 8, replicate 3
  Fluorescence intensity, fluorescence competitive binding assay, OBP11: 30051
[2]; ligand concentration 10, replicate 1
  Fluorescence intensity, fluorescence competitive binding assay, OBP11: 30839
[2]; ligand concentration 10, replicate 2
  Fluorescence intensity, fluorescence competitive binding assay, OBP11: 29352
[2]; ligand concentration 10, replicate 3
  Fluorescence intensity, fluorescence competitive binding assay, OBP11: 29736
[2]; ligand concentration 12, replicate 1
  Fluorescence intensity, fluorescence competitive binding assay, OBP11: 30215
[2]; ligand concentration 12, replicate 2
  Fluorescence intensity, fluorescence competitive binding assay, OBP11: 28382
[2]; ligand concentration 12, replicate 3
  Fluorescence intensity, fluorescence competitive binding assay, OBP11: 27824
[2]; ligand concentration 14, replicate 1
  Fluorescence intensity, fluorescence competitive binding assay, OBP11: 26586
[2]; ligand concentration 14, replicate 2
  Fluorescence intensity, fluorescence competitive binding assay, OBP11: 26869
[2]; ligand concentration 14, replicate 3
  Fluorescence intensity, fluorescence competitive binding assay, OBP11: 27309
[2]; ligand concentration 16, replicate 1
  Fluorescence intensity, fluorescence competitive binding assay, OBP11: 25698
[2]; ligand concentration 16, replicate 2
  Fluorescence intensity, fluorescence competitive binding assay, OBP11: 25045
[2]; ligand concentration 16, replicate 3
  Fluorescence intensity, fluorescence competitive binding assay, OBP11: 25361
[2]; ligand concentration 18, replicate 1
  Fluorescence intensity, fluorescence competitive binding assay, OBP11: 25004
[2]; ligand concentration 18, replicate 2
  Fluorescence intensity, fluorescence competitive binding assay, OBP11: 25141
[2]; ligand concentration 18, replicate 3
  Fluorescence intensity, fluorescence competitive binding assay, OBP11: 24946
[2]; ligand concentration 20, replicate 1
  Fluorescence intensity, fluorescence competitive binding assay, OBP11: 23792
[2]; ligand concentration 20, replicate 2
  Fluorescence intensity, fluorescence competitive binding assay, OBP11: 23804
[2]; ligand concentration 20, replicate 3
  Fluorescence intensity, fluorescence competitive binding assay, OBP11: 23815
[3]
  IC50: > 20 µM
[3]; ligand concentration 2 (unit not given), replicate column 1 of 3
  Fluorescence competitive binding assay, OBP2 (raw fluorescence reading): 21005
[3]; ligand concentration 2 (unit not given), replicate column 2 of 3
  Fluorescence competitive binding assay, OBP2 (raw fluorescence reading): 21502
[3]; ligand concentration 2 (unit not given), replicate column 3 of 3
  Fluorescence competitive binding assay, OBP2 (raw fluorescence reading): 19080
[3]; ligand concentration 4 (unit not given), replicate column 1 of 3
  Fluorescence competitive binding assay, OBP2 (raw fluorescence reading): 24365
[3]; ligand concentration 4 (unit not given), replicate column 2 of 3
  Fluorescence competitive binding assay, OBP2 (raw fluorescence reading): 22710
[3]; ligand concentration 4 (unit not given), replicate column 3 of 3
  Fluorescence competitive binding assay, OBP2 (raw fluorescence reading): 24844
[3]; ligand concentration 6 (unit not given), replicate column 1 of 3
  Fluorescence competitive binding assay, OBP2 (raw fluorescence reading): 22191
[3]; ligand concentration 6 (unit not given), replicate column 2 of 3
  Fluorescence competitive binding assay, OBP2 (raw fluorescence reading): 22417
[3]; ligand concentration 6 (unit not given), replicate column 3 of 3
  Fluorescence competitive binding assay, OBP2 (raw fluorescence reading): 22519
[3]; ligand concentration 8 (unit not given), replicate column 1 of 3
  Fluorescence competitive binding assay, OBP2 (raw fluorescence reading): 23158
[3]; ligand concentration 8 (unit not given), replicate column 2 of 3
  Fluorescence competitive binding assay, OBP2 (raw fluorescence reading): 21663
[3]; ligand concentration 8 (unit not given), replicate column 3 of 3
  Fluorescence competitive binding assay, OBP2 (raw fluorescence reading): 20781
[3]; ligand concentration 10 (unit not given), replicate column 1 of 3
  Fluorescence competitive binding assay, OBP2 (raw fluorescence reading): 20596
[3]; ligand concentration 10 (unit not given), replicate column 2 of 3
  Fluorescence competitive binding assay, OBP2 (raw fluorescence reading): 20292
[3]; ligand concentration 10 (unit not given), replicate column 3 of 3
  Fluorescence competitive binding assay, OBP2 (raw fluorescence reading): 20233
[3]; ligand concentration 12 (unit not given), replicate column 1 of 3
  Fluorescence competitive binding assay, OBP2 (raw fluorescence reading): 19697
[3]; ligand concentration 12 (unit not given), replicate column 2 of 3
  Fluorescence competitive binding assay, OBP2 (raw fluorescence reading): 18134
[3]; ligand concentration 12 (unit not given), replicate column 3 of 3
  Fluorescence competitive binding assay, OBP2 (raw fluorescence reading): 19454
[3]; ligand concentration 14 (unit not given), replicate column 1 of 3
  Fluorescence competitive binding assay, OBP2 (raw fluorescence reading): 17572
[3]; ligand concentration 14 (unit not given), replicate column 2 of 3
  Fluorescence competitive binding assay, OBP2 (raw fluorescence reading): 18013
[3]; ligand concentration 14 (unit not given), replicate column 3 of 3
  Fluorescence competitive binding assay, OBP2 (raw fluorescence reading): 17420
[3]; ligand concentration 16 (unit not given), replicate column 1 of 3
  Fluorescence competitive binding assay, OBP2 (raw fluorescence reading): 16408
[3]; ligand concentration 16 (unit not given), replicate column 2 of 3
  Fluorescence competitive binding assay, OBP2 (raw fluorescence reading): 15544
[3]; ligand concentration 16 (unit not given), replicate column 3 of 3
  Fluorescence competitive binding assay, OBP2 (raw fluorescence reading): 15169
[3]; ligand concentration 18 (unit not given), replicate column 1 of 3
  Fluorescence competitive binding assay, OBP2 (raw fluorescence reading): 18334
[3]; ligand concentration 18 (unit not given), replicate column 2 of 3
  Fluorescence competitive binding assay, OBP2 (raw fluorescence reading): 23371
[3]; ligand concentration 18 (unit not given), replicate column 3 of 3
  Fluorescence competitive binding assay, OBP2 (raw fluorescence reading): 18960
[3]; ligand concentration 20 (unit not given), replicate column 1 of 3
  Fluorescence competitive binding assay, OBP2 (raw fluorescence reading): 17296
[3]; ligand concentration 20 (unit not given), replicate column 2 of 3
  Fluorescence competitive binding assay, OBP2 (raw fluorescence reading): 16882
[3]; ligand concentration 20 (unit not given), replicate column 3 of 3
  Fluorescence competitive binding assay, OBP2 (raw fluorescence reading): 15413
[4]
  IC50: > 20 µM
[4]; ligand concentration 2
  Fluorescence competitive binding assay, fluorescence intensity: 99229 and 86961 and 92264
[4]; ligand concentration 4
  Fluorescence competitive binding assay, fluorescence intensity: 97193 and 95605 and 87600
[4]; ligand concentration 6
  Fluorescence competitive binding assay, fluorescence intensity: 102900 and 102445 and 98166
[4]; ligand concentration 8
  Fluorescence competitive binding assay, fluorescence intensity: 100522 and 107674 and 104095
[4]; ligand concentration 10
  Fluorescence competitive binding assay, fluorescence intensity: 49630 and 50618 and 48648
[4]; ligand concentration 12
  Fluorescence competitive binding assay, fluorescence intensity: 46251 and 47333 and 45186
[4]; ligand concentration 14
  Fluorescence competitive binding assay, fluorescence intensity: 39681 and 44579 and 42492
[4]; ligand concentration 16
  Fluorescence competitive binding assay, fluorescence intensity: 42940 and 41521 and 40287
[4]; ligand concentration 18
  Fluorescence competitive binding assay, fluorescence intensity: 51522 and 51973 and 51748
[4]; ligand concentration 20
  Fluorescence competitive binding assay, fluorescence intensity: 50731 and 60428 and 55580

— paper PMC6409085, “Three odorant-binding proteins are involved in the behavioral response of Sogatella furcifera to rice plant volatiles” (PeerJ, 2019)
